The NIST ThermoML archive (doi:10.1021/je600552b)
± gives the expanded uncertainty stated by the source.

Settings: 101.33 kPa, Liquid, Falling or rolling sphere viscometry

kinematic viscosity (293.15 K) | kinematic viscosity (303.15 K) | kinematic viscosity (313.15 K) | kinematic viscosity (323.15 K) | kinematic viscosity (333.15 K) | kinematic viscosity (343.15 K) | viscosity (293.15 K) | viscosity (303.15 K) | viscosity (313.15 K) | viscosity (323.15 K) | viscosity (333.15 K) | viscosity (343.15 K) | Compound
– | – | – | – | – | – | 6.37 ± 0.22 mPa·s | 4.922 ± 0.17 mPa·s | 3.939 ± 0.14 mPa·s | 3.097 ± 0.11 mPa·s | 2.472 ± 0.085 mPa·s | 2.054 ± 0.071 mPa·s | CCCCCCCC/C=C\CCCCCCCC(=O)OC [methyl cis-9-octadecenoate]
– | – | – | – | – | – | 3.096 ± 0.11 mPa·s | 2.475 ± 0.085 mPa·s | 2.044 ± 0.07 mPa·s | 1.643 ± 0.056 mPa·s | 1.383 ± 0.047 mPa·s | 1.173 ± 0.04 mPa·s | CCCCCCCCCCCC(=O)OC [methyl dodecanoate]
– | – | – | – | – | – | – | – | 3.764 ± 0.13 mPa·s | 2.931 ± 0.1 mPa·s | 2.336 ± 0.08 mPa·s | 1.946 ± 0.067 mPa·s | CCCCCCCCCCCCCCCC(=O)OC [methyl hexadecanoate]
– | – | – | – | – | – | 4.442 ± 0.15 mPa·s | 3.496 ± 0.12 mPa·s | 2.841 ± 0.098 mPa·s | 2.252 ± 0.078 mPa·s | 1.819 ± 0.063 mPa·s | 1.521 ± 0.052 mPa·s | CCCCCCCCCCCCCC(=O)OC [methyl tetradecanoate]

Continued, compound first:

Compound | kinematic viscosity (293.15 K) | kinematic viscosity (303.15 K) | kinematic viscosity (313.15 K) | kinematic viscosity (323.15 K) | kinematic viscosity (333.15 K) | kinematic viscosity (343.15 K) | viscosity (293.15 K) | viscosity (303.15 K) | viscosity (313.15 K) | viscosity (323.15 K) | viscosity (333.15 K) | viscosity (343.15 K)
CC/C=C\C/C=C\C/C=C\CCCCCCCC(=O)O [all-cis-9,12,15-octadecatrienoic acid] | 1.55e-05 ± 7.9e-07 m2/s | 1.24e-05 ± 6.3e-07 m2/s | 8.91e-06 ± 4.5e-07 m2/s | 7.26e-06 ± 3.7e-07 m2/s | 5.96e-06 ± 3e-07 m2/s | 5.13e-06 ± 2.6e-07 m2/s | – | – | – | – | – | –
CCCCC/C=C\C/C=C\CCCCCCCC(=O)OC [methyl (Z,Z)-9,12-octadecadienate] | – | – | – | – | – | – | 4.798 ± 0.17 mPa·s | 3.822 ± 0.13 mPa·s | 3.166 ± 0.11 mPa·s | 2.55 ± 0.088 mPa·s | 2.078 ± 0.071 mPa·s | 1.755 ± 0.06 mPa·s
CC/C=C\C/C=C\C/C=C\CCCCCCCC(=O)OC [methyl (Z,Z,Z)-9,12,15-octadecatrienoate] | – | – | – | – | – | – | 4.022 ± 0.14 mPa·s | 3.301 ± 0.11 mPa·s | 2.79 ± 0.096 mPa·s | 2.299 ± 0.079 mPa·s | 1.862 ± 0.064 mPa·s | 1.596 ± 0.055 mPa·s
CC/C=C\C/C=C\C/C=C\CCCCCCCC(=O)OCC(COC(=O)CCCCCCC/C=C\C/C=C\C/C=C\CC)OC(=O)CCCCCCC/C=C\C/C=C\C/C=C\CC [trilinolenin] | 2.37e-05 ± 8.1e-07 m2/s | 1.76e-05 ± 6.1e-07 m2/s | 1.36e-05 ± 4.6e-07 m2/s | 1.07e-05 ± 3.7e-07 m2/s | 8.68e-06 ± 3e-07 m2/s | 7.18e-06 ± 2.5e-07 m2/s | – | – | – | – | – | –
